Data published in patent US20260048051A1, “TREATMENT OF INFLAMMATORY BOWEL DISEASE” (Atomwise Inc., priority 2024, published 2026).
“Also recorded” adds a separate entry of the source. Like-named read-outs stand apart in the source and are kept apart here.

Assay: GLP in vivo assay of genotoxicity

Compound: C[C@@H](c1ccc(Nc2cc(Nc3ncc(F)cc3S(C)(=O)=O)ncn2)nc1)N1CC2(COC2)C1 [Compound 2, (S)—N^4-(5-(1-(2-oxa-6-azaspiro[3.3]heptan-6-yl)ethyl)pyridin-2-yl)-N^6-(5-fluoro-3-(methylsulfonyl)pyridin-2-yl)pyrimidine-4,6-diamine]
- genotoxicity: substantially no genotoxicity; also recorded: virtually no genotoxicity
- genotoxicity (listed as compound 2): substantially non-genotoxic
